Laboratory results taken from paper PMC11592631, “Novel PP2A-Activating Compounds in Neuroblastoma” (Cancers, 2024).

Experiments:
SK-N-AS cells [1] = test: Monolayer wound healing (scratch) assay; format: cell-based, human; details: 4 μM
Protocol: (§1) Migration was investigated using a monolayer wound healing (scratch) assay. Established NB cells (5 × 10^4) were plated in 12-well plates. […] Photographs of the plates were obtained at 0, 12, 24, and 36 h. The ImageJ MRI Wound Healing Tool (https://imagej.net, accessed on 26 November 2021) quantified the open wound area as previously described. In PDX cells, migration was assessed using modified Boyden chamber assays. Micropore inserts with […] (Corning) were utilized in 24-well plates. The insert bottoms were coated with human laminin (10 µg/mL, 150 μL, EMD Millipore). COA6 PDX cells were treated for 24 h with ATUX-3364 or ATUX-8385 (6 μM), plated (4 × 10^4 cells), allowed to migrate through the membrane for 72 h, and the insert membranes were fixed using 4% paraformaldehyde and stained with 1% crystal violet for 15 min. Inserts were photographed, and migration was quantified with ImageJ (https://imagej.net, accessed on 26 November 2021). Scratch assays were reported as the fold change area remaining open at 36 h, and modified Boyden chamber assays were reported as the mean number of migrated cells ± SEM. Experiments were completed with at least three biological replicates.

SK-N-BE(2) cells [2] = test: Monolayer wound healing (scratch) assay; format: cell-based, human; details: 4 μM, vs untreated cells, p ≤ 0.001
Protocol: as §1

SH-EP cells [3] = test: Monolayer wound healing (scratch) assay; format: cell-based, human; details: 12 μM, vs untreated cells, p ≤ 0.001
Protocol: as §1

WAC2 cells [4] = test: Monolayer wound healing (scratch) assay; format: cell-based, human; details: WAC2, 12 μM; vs untreated cells, p ≤ 0.001
Protocol: as §1

PP2A = molecular target: T1, PP2A (Homo sapiens, UniProt P30153+P67775+Q15172); test: PP2A Immunoprecipitation Phosphatase Assay on lysates of treated NB cells; format: cell-based; details: 24 h, control 100%, mean ± SEM
T1 construct: endogenous in cells; host or cells: SK-N-AS, SK-N-BE(2), SH-EP, WAC2 human neuroblastoma cells
Protocol: SK-N-AS, SK-N-BE(2), SH-EP, or WAC2 cells (1 × 10^6) were treated with ATUX-3364 or ATUX-8385 (SK-N-AS and SK-N-BE(2) 4 µM; SH-EP and WAC2 12 µM) for 24 h and lysed using HEPES ((4-(2-hydroxyethyl)-1-piperazineethanesulfonic acid, 10 mM) (AC215001000, Thermo Fisher Scientific), MgCl2 (1.5 mM) (MX0045-4, EM Science, Gibbstown, NJ, USA), KCl (10 mM) (02-003-741, Thermo Fisher Scientific), phenylmethylsulfonyl fluoride (0.5 mM) (PMSF, Sigma Aldrich), dithiothreitol (0.5 mM) (EC-601, National Diagnostics, Atlanta, GA, USA), and Igepal CA-630 (0.2%) (I7771, Sigma Aldrich) on ice for 20 min. Cell lysates were centrifuged at 17 000 rpm for 30 min at 4 °C. A PP2A Immunoprecipitation Phosphatase Assay Kit (17–313, EMD Millipore) was utilized per the manufacturer’s protocol to evaluate the activity of PP2A. Experiments were completed with at least three biological replicates, and data were reported as mean fold change ± standard error of the mean (SEM).

COA6 PDX cells [5] = test: Modified Boyden chamber migration assay; format: cell-based, human; details: COA6, 6 μM, treated 24 h, 72 h migration; p ≤ 0.001
Protocol: as §1

[6] = Pharmacokinetic studies of ATUX-8385 in mice (IV and PO), plasma by LC-MS/MS; format: in vivo
Protocol: Pharmacokinetic (PK) studies of ATUX-8385 were conducted by Eurofins. Briefly, ATUX-8385 was administered at 1 mg/kg intravenously (IV) or 30 mg/kg oral (PO) to male mice, as is the experimental choice of the Contract Research Organization. At euthanasia, samples were collected and stored at −70 °C until processing. The plasma samples were collected at 0.05, 0.167, 0.5, 1, 2, 4, 8, and 24 h(s) after IV treatment, and at 0.167, 0.5, 1, 2, 4, 6, 8, and 24 h(s) after PO treatment. The plasma samples were processed using acetonitrile precipitation and analyzed by liquid chromatography–tandem mass spectrometry (LC-MS/MS).

CIP2A = test: Immunoblotting for the endogenous PP2A inhibitor CIP2A; format: cell-based, human; details: immunoblot
Protocol: (§2) Post-treatment, cell lysis was completed in radioimmunoprecipitation (RIPA) buffer. Phosphatase inhibitors (P5726, Sigma), protease inhibitors (P8340, Sigma), and phenylmethanesulfonylfluoride (PMSF, P7626, Sigma) were added to make a complete RIPA buffer. Lysis was performed for 60 min at 4 °C followed by centrifugation at 17,000 rpm for 30 min (4 °C). The protein concentration was determined using the Pierce BCA Protein Assay (Thermo Fisher Scientific), and protein separation was completed on sodium dodecyl sulfate polyacrylamide (SDS-PAGE) gel-based electrophoresis. Targeted protein size was determined using molecular weight markers (Precision Plus Protein Kaleidoscope, Bio-Rad, Hercules, CA, USA). […] Immunoblots were developed with Luminata Classico or Crescendo Western horseradish peroxidase substrate (EMD Millipore, Burlington, MA, USA) on X-ray film. Anti-beta-actin, anti-vinculin, or anti-GAPDH served as internal loading controls.

MYCN = test: Immunoblotting for phosphorylated MYCN (S62) and total MYCN; format: cell-based, human; details: increasing concentrations, immunoblot
Protocol: as §2

SK-N-BE(2) tumors = test: In vivo tumor growth, flank xenograft; set-up: species or system athymic nude mice; details: 50 mg/kg oral twice daily, 21 days
Protocol: (§3) SK-N-AS or SK-N-BE(2) (1.5 × 10^6) cells in 25% Matrigel (BD Biosciences) were injected into the right flank of 6-week-old female athymic nude mice (Fredricks) (n = 7 for SK-N-AS vehicle treated, n = 6 for SK-N-AS experimental groups, n = 5 for SK-N-BE(2) vehicle treated, n = 6 for SK-N-BE(2) ATUX-3364, and n = 7 ATUX-8385 treatment groups). Tumors were measured thrice per week with calipers, and tumor volumes were calculated by the formula (width^2 × length)/2, where the width was the smaller measurement. When tumors reached a volume of 60–100 mm^3, animals were randomized to three groups to receive 100 µL twice daily by oral gavage of vehicle [N,N-dimethylacetamide (DMA, 271012, Sigma Aldrich) and Kolliphor HS 15 (Solutol, 42996, Sigma Aldrich)], ATUX-3364 (50 mg/kg in DMA and Solutol), or ATUX-8385 (50 mg/kg in DMA and Solutol); dosing was based on previously published data using in vivo cancer models. Animals were weighed daily and were humanely euthanized in their home cages with CO2 and cervical dislocation 14 (SK-N-AS) or 21 (SK-N-BE(2)) days after treatment initiation, when the tumor volume reached 2000 mm^3, or when animals met IACUC parameters. Because COA6 cells grow tumors unpredictably and erratically in mice, these PDX cells were not utilized for in vivo studies, but all COA6 tumors were propagated in mice.

SK-N-AS tumors = test: In vivo tumor growth, flank xenograft; set-up: species or system athymic nude mice; details: 50 mg/kg oral twice daily, 14 days
Protocol: as §3

PARP = test: Immunoblotting for cleaved and total PARP (apoptosis); format: cell-based, human; details: immunoblot
Protocol: as §2

SET = test: Immunoblotting for the endogenous PP2A inhibitor SET; format: cell-based, human; details: immunoblot
Protocol: as §2

[7] = In vitro microsome (oxidative) stability / in vitro metabolism; format: in vitro ADME
COA6 PDX cells [8] = test: Cell viability, alamarBlue assay; format: cell-based, human; details: COA6 PDX cells, 0, 5, 10, 20 μM, 24 h
Protocol: (§4) Cell viability was determined by alamarBlue assay (Thermo Fisher Scientific) and proliferation was detected with CellTiter 96 Proliferation assay (Promega, Madison, WI, USA). NB cell lines (15,000 cells for viability or 5000 for proliferation) or COA6 PDX cells (30,000 for viability or 10,000 for proliferation) were seeded in 96-well cell culture plates followed by treatment with increasing doses of ATUX-3364 or ATUX-8385 for 24 h. Doses were as follows: established cell lines, 0–20 µM; PDX COA6 cells, 0–25 µM. Respective dyes (10 µL) were added, and absorbance measurement was completed with a microplate reader (Epoch Microplate Spectrophotometer, BioTek Instruments, Winooski, VT, USA). A wavelength of 570 nm was used for alamarBlue and 490 nm for CellTiter 96 with 600 nm serving as the reference for both. A minimum of three biological replicates for each experiment were completed, and data were reported as fold change ± SEM.

SK-N-AS cells [9] = test: Cell viability, alamarBlue assay; format: cell-based, human; details: SK-N-AS, 0, 5, 7.5, 20 μM, 24 h
Protocol: as §4

SK-N-BE(2) cells [10] = test: Cell viability, alamarBlue assay; format: cell-based, human; details: SK-N-BE(2), 0, 5, 7.5, 20 μM, 24 h
Protocol: as §4

SH-EP cells [11] = test: Cell viability, alamarBlue assay; format: cell-based, human; details: SH-EP, 0, 5, 7.5, 20 μM, 24 h
Protocol: as §4

WAC2 cells [12] = test: Cell viability, alamarBlue assay; format: cell-based, human; details: WAC2, 0, 5, 7.5, 20 μM, 24 h
Protocol: as §4

COA6 PDX cells [13] = test: Proliferation, CellTiter 96 assay; format: cell-based, human; details: increasing doses, 24 h
Protocol: as §4

SK-N-AS cells [14] = test: Proliferation, CellTiter 96 assay; format: cell-based, human; details: increasing doses, 24 h
Protocol: as §4

SK-N-BE(2) cells [15] = test: Proliferation, CellTiter 96 assay; format: cell-based, human; details: increasing doses, 24 h
Protocol: as §4

SH-EP cells [16] = test: Proliferation, CellTiter 96 assay; format: cell-based, human; details: increasing doses, 24 h
Protocol: as §4

WAC2 cells [17] = test: Proliferation, CellTiter 96 assay; format: cell-based, human; details: WAC2, increasing doses, 24 h
Protocol: as §4

[18] = set-up: method as in PMID 35454859; details: cited from earlier work
[19] = set-up: method as in PMID 35454859; details: in vivo; cited from earlier work

T1 sequence (P30153 2-589 limits assumed): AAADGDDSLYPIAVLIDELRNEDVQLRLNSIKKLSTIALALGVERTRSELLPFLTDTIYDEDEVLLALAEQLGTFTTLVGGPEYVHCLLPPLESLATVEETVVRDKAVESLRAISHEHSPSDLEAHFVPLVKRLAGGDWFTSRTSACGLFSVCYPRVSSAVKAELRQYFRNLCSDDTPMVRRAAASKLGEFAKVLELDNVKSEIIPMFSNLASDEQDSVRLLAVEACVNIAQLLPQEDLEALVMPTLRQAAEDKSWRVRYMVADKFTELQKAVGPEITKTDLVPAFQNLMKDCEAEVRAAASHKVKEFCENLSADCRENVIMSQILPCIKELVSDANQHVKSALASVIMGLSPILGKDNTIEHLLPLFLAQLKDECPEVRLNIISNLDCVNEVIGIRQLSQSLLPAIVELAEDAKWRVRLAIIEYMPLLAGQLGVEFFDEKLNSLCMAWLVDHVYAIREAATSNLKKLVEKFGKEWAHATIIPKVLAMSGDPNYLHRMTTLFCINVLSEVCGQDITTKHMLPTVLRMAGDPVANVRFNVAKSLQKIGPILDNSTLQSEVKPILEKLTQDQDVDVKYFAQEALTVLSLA
T1 sequence (P67775 whole entry): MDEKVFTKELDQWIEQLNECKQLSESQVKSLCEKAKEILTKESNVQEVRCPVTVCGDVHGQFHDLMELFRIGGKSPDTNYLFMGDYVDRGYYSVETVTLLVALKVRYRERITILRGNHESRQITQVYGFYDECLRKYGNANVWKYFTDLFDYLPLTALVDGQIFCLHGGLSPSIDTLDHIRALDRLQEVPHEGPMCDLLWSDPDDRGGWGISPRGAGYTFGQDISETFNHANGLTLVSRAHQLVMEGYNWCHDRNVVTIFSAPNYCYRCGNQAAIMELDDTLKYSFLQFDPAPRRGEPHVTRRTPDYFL
T1 sequence (Q15172 whole entry): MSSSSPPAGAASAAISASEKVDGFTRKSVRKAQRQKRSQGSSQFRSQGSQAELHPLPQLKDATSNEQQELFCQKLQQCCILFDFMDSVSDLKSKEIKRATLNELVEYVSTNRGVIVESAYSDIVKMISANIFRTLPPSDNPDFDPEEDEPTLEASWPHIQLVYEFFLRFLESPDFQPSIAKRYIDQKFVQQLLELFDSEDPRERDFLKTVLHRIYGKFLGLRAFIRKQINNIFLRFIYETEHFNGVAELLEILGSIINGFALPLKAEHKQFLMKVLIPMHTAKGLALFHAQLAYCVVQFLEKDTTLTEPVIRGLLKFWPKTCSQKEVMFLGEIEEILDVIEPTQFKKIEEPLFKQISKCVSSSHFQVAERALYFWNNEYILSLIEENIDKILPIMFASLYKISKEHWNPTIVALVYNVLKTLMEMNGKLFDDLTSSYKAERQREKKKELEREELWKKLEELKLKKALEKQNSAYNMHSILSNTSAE

O=S(=O)(N[C@@H]1CNC[C@H](n2c3ccc(F)cc3c3cc(F)ccc32)[C@H]1O)c1ccc(OC(F)(F)F)cc1 [ATUX-8385]
motility (wound healing, area remaining open at 36 h) (SK-N-AS cells [1]): affected in a statistically significant manner
motility (wound healing, area remaining open at 36 h) (SK-N-BE(2) cells [2]): significant decrease in motility
motility (wound healing, area remaining open at 36 h) (SH-EP cells [3]): significant decrease in motility
motility (wound healing, area remaining open at 36 h) (WAC2 cells [4]): significant decrease in motility
PP2A activation (percent of control) (PP2A; SH-EP cells, 12 μM): 126.6 ± 6.4%
PP2A activation (percent of control) (PP2A; SK-N-AS cells, 4 μM): 134.1 ± 5.5%
PP2A activation (percent of control) (PP2A; SK-N-BE(2) cells, 4 μM): 167.2 ± 13.7%
PP2A activation (percent of control) (PP2A; WAC2 cells, 12 μM): 118.2 ± 9.2%
cell migration (number of migrated cells) (COA6 PDX cells [5]): significantly decreased
in vivo IV clearance stability relative to DBK-1154 ([6]; 12.3 vs 32.5 mL/min/kg): more stable by a factor of nearly three times
Plasma levels ([6]; for approximately 8 h after a bolus oral dose at 30 mg/kg): 1 to 2 µM
CIP2A expression (CIP2A; SH-EP cells): decreased
CIP2A expression (CIP2A; SK-N-AS cells): decreased
CIP2A expression (CIP2A; SK-N-BE(2) cells): decreased
CIP2A expression (CIP2A; WAC2 cells): decreased
phosphorylated MYCN (S62) (MYCN; SK-N-AS cells): decreased
total MYCN protein expression (MYCN; SK-N-AS cells): decreased
phosphorylated MYCN (S62) (MYCN; SK-N-BE(2) cells): decreased
total MYCN protein expression (MYCN; SK-N-BE(2) cells): decreased
relative tumor growth (SK-N-BE(2) tumors): significant decrease
tumor volumes (SK-N-BE(2) tumors): significant decrease
relative tumor growth (SK-N-AS tumors): no decrease
tumor volumes (SK-N-AS tumors): no decrease
cleaved PARP (PARP; SK-N-AS whole cell lysates): increase
total PARP (PARP; SK-N-AS whole cell lysates): decrease
cleaved PARP (PARP; SK-N-BE(2) whole cell lysates): increase
total PARP (PARP; SK-N-BE(2) whole cell lysates): decrease
SET expression (SET; COA6 PDX cells): variably affected
SET expression (SET; SH-EP cells): did not alter SET expression
SET expression (SET; SK-N-AS cells): unchanged
SET expression (SET; SK-N-BE(2) cells): increased
SET expression (SET; WAC2 cells): decreased
microsome stability relative to DBK-1154 ([7]; <115.5 vs 234 µL/min/mg): more stable by a factor of two
Clearance (in vitro microsome (oxidative) stability) ([7]; Test Concentration 1 x 10^-7 M): < 115.5 µL/min/mg
viability (COA6 PDX cells [8]): significantly decreased
viability (SK-N-AS cells [9]): significantly decreased viability
viability (SK-N-BE(2) cells [10]): significantly decreased viability
viability (SH-EP cells [11]): significantly decreased viability
viability (WAC2 cells [12]): significantly decreased viability
proliferation (COA6 PDX cells [13]): significant decrease
proliferation (SK-N-AS cells [14]): significant decrease
proliferation (SK-N-BE(2) cells [15]): significant decrease
proliferation (SH-EP cells [16]): significant decrease
proliferation (WAC2 cells [17]): significant decrease

O=S(=O)(NC1CCCC(N2c3ccccc3CCc3ccccc32)C1O)c1ccc(OC(F)(F)F)cc1 (stereo not shown) [DBK-1154]
in vitro microsome (oxidative) stability (clearance) [18]: 234 µL/min/mg
clearance IV [19]: 32.5 mL/min/kg
